# Reference: PubChem BioAssay (NCI)
#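 Cultured in 96-well plates, cells were exposed to test compound for 48 hours across five concentrations. TGI: concentration producing complete growth inhibition.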
# Key:
# Assay in all cases: NCI tumour cell line growth inhibition, 48 h
# ACHN renal = system: ACHN renal
# HOP-92 NSCLC = system: HOP-92 NSCLC
# KM12 colon = system: KM12 colon
# MDA-MB-231 breast = system: MDA-MB-231 breast
# MDA-N = system: MDA-N
# OVCAR-3 ovarian = system: OVCAR-3 ovarian
# OVCAR-4 ovarian = system: OVCAR-4 ovarian
# OVCAR-8 ovarian = system: OVCAR-8 ovarian
# SK-MEL-5 melanoma = system: SK-MEL-5 melanoma
# SNB-75 CNS = system: SNB-75 CNS
Structure (SMILES),TGI (ACHN renal) [µM],TGI (HOP-92 NSCLC) [µM],TGI (KM12 colon) [µM],TGI (MDA-MB-231 breast) [µM],TGI (MDA-N) [µM],TGI (OVCAR-3 ovarian) [µM],TGI (OVCAR-4 ovarian) [µM],TGI (OVCAR-8 ovarian) [µM],TGI (SK-MEL-5 melanoma) [µM],TGI (SNB-75 CNS) [µM]
Cc1ccc2cccc(-c3cccc4ccccc34)c2n1,> 100,62.1,63.4,81,22.7,> 100,> 100,57.7,32.2,48.2
COc1ccc(N=Nc2c(-c3c(OC)cc4occc4c3OC)[nH]c(=O)c(C#N)c2C)cc1,> 100,> 100,> 100,> 100,> 100,> 100,> 100,> 100,> 100,> 100
Cn1nc(-c2ccc(S(=O)(=O)/N=C(\NN)Nc3ccc(Cl)cc3)s2)cc1C(F)(F)F,33.8,40.2,31.5,32.2,28,36.4,29.9,43,35.9,29.9
O=C(/C=C/c1ccc(Cl)cc1)Oc1ccc(C=C2CCC/C(=C\c3ccc(OC(=O)/C=C/c4ccc(Cl)cc4)cc3)C2=O)cc1,> 100,> 100,> 100,> 100,> 100,> 100,> 100,> 100,> 100,> 100
CCOC(=O)c1c(N2CCCC2)[nH]c(=O)c(C(c2ccc(OC)cc2)c2c(O)c(C(=O)OCC)c(N3CCCC3)[nH]c2=O)c1O,> 100,58.6,> 100,88.1,> 100,> 100,> 100,> 100,> 100,69
COC(=O)/C=C(\C)CC/C=C(\C)CCC1OC1(C)C (stereo not given),23.3,22.8,20.8,23.4,21.9,21.8,22.2,25.7,22.4,38.8
CC(=O)c1ccc(Oc2c3ccccc3nc3ccccc23)cc1,15.9,25.6,22.7,25.5,14.2,21,18.6,22.2,28.6,29.7
COC(=O)/C=C(/C=C1/C(C#N)=C(N)N(c2ccc(Cl)cc2)C1(C)/C(=C\C(=O)OC)C(=O)OC)C(=O)OC (stereo not given),76.8,48,37,53.4,30.8,42.3,60.5,33.7,29.4,63.3
CC(=O)Nc1nc(Cl)cc(NCC2(CO)CCC2)n1,> 100,> 100,> 100,> 100,> 100,> 100,> 100,> 100,> 100,> 100
O=C(CC(NC(=O)C(F)(F)F)C(=O)O)OCc1ccccc1 (stereo not given),> 100,> 100,> 100,> 100,> 100,> 100,> 100,> 100,> 100,> 100
NC1=CC(=O)c2c(O)ccc(O)c2C1=O,34.2,38.2,> 78.7,38.5,13.1,8.45,23.1,33,20.3,83.3
O=c1ccc2ccc(S)cc2o1,> 100,> 100,> 100,> 100,> 100,> 100,> 100,> 100,> 100,> 100
O=c1c(F)cn2c(=O)n1CCCCCCCn1c(=O)c(F)cn(c1=O)CCCCCCC2,> 100,> 100,> 100,> 100,> 100,> 100,98.4,> 100,> 100,27
O=C(NCc1ccccc1)c1cc2ccccc2oc1=Nc1cccc(C(F)(F)F)c1,> 100,> 100,> 100,> 100,> 100,> 100,> 100,> 100,70.8,> 100
Cc1c2cccc-2c2cc(O)c3ccccc3c2n1-c1ccc(N(C)C)cc1,24.9,8,23.1,9.75,36.9,19.1,12.1,33.8,24.1,17.5
CCOC1C=CC(=O)C(CO)O1 (stereo not given),24.1,8.29,31.5,32.1,31.5,19.1,26.5,26,37.1,33.5
